The results in this text go back to US7803757B2, “Peptides based on the sequence of human lactoferrin and their use” (PharmaSurgics in Sweden AB, priority 1998, dated 2010).

Holding throughout (assay type): cell-based
Test [1] relates to C. albicans. Kind of test: MMC99% of modified peptides, C. albicans (Example 25). To be noted: BHI diluted 1/100, pH approximately 6.7-6.9 (Table 21). The protocol: (§1) In the examples, the minimal microbicidal concentrations (MMC) and minimal inhibitory concentrations (MIC) were determined as follows, unless otherwise specified in the examples. Bacterial or fungal strains were cultured in BHI medium over night at 37° C. A volume of the culture was transferred to a new tube with BHI and incubated for two more hours. Thereafter the cells were spun down and the pellet was suspended in BHI medium diluted 1/100 (1% BHI). The concentration of bacterial or fungal cells was spectrophotometrically determined at 650 nm. The microbial concentrations were also determined by viable counts. Peptides serially diluted in 1% BHI by twofold or tenfold steps were added in triplicate to the wells of a microtiterplate (200 μl per well). The bacterial or fungal cell solutions were added in 10 μl volumes to give a final concentration of approximately 1-5×10^5 cells per ml in the well. The microplate was incubated at 37° C. in a humid chamber for two hours. Thereafter 5 μl was taken from each well and added as a drop onto a blood agar plate and incubated over night at 37° C. The microplate was incubated for another 20 hours at 37° C. and thereafter analysed spectrophotometrically at 650 nm in a microplate reader (Emax, Molecular Devices, USA). The concentration of peptide causing a 99% reduction of the inoculum after 2 hours of incubation was defined as the MMC99%. The MIC value was defined as the concentration giving no increase in the absorbance value above the background level after 20 hours of incubation.
(§2) In this example the fungicidal, and bactericidal effects of the different peptides obtained in examples 18-21 were studied. C. albicans, E. coli and S. aureus, respectively, were incubated in BHI medium diluted 1/100, with a pH of approximately 6.7-6.9. The concentration of each peptide needed to kill 99% of the microorganisms (MMC99%) was determined.

Test [2] relates to E. coli. Kind of test: MMC99% of modified peptides, E. coli (Example 25). To be noted: BHI diluted 1/100, pH approximately 6.7-6.9 (Table 21). The protocol:
as §1, §2

Test [3] relates to S. aureus. Kind of test: MMC99% of modified peptides, S. aureus (Example 25). The conditions noted are these: BHI diluted 1/100, pH approximately 6.7-6.9 (Table 21). The protocol:
as §1, §2

Test [4] concerns C. albicans. The experiment in a line: fungicidal activity MMC99%, C. albicans (Example 27). To be noted: BHI diluted 1/100 (Table 23). As for the experimental part:
as §1
(§3) In this example the fungicidal activity of three of the peptides according to the invention was studied, and tested against three different fungi. The fungi were incubated in BHI medium diluted 1/100. The concentration of each peptide needed to kill 99% of the fungi (MMC99%) was determined.

In the next test the test system is C. glabrata. The experiment in a line: fungicidal activity MMC99%, C. glabrata (Example 27). To be noted: BHI diluted 1/100 (Table 23). The protocol: as §1, §3
Another test relates to C. neoformans. The experiment in a line: fungicidal activity MMC99%, C. neoformans (Example 27). The conditions noted are these: BHI diluted 1/100 (Table 23). As for the experimental part: as §1, with “The bacterial or fungal cell solutions were added in 10 μl volumes to give a final concentration of approximately 1-5×10^5 cells per ml in the well. The microplate was incubated at 37° C. in a humid chamber for two hours. Thereafter 5 μl was taken from each well and added as a drop onto a blood agar plate and incubated over night at 37° C.” left out, “The concentration of peptide causing a 99% reduction of the inoculum after 2 hours of incubation was defined as the MMC99%.” left out
In this example the fungicidal activity of three of the peptides according to the invention was studied, and tested against three different fungi. […] The concentration of each peptide needed to kill 99% of the fungi (MMC99%) was determined.

The test system of another test is E. coli O6K5. Kind of test: microbicidal activity MMC99%, E. coli O6K5 (Example 28). The conditions noted are these: E. coli O6K5 (Table 24). The protocol:
as §1
(§4) In this example the microbicidal activity of eight of the peptides according to the invention was studied, and tested against E. coli O6K5 and C. albicans.
(§5) The concentration of each peptide needed to kill 99% of the microorganisms (MMC99%) was determined.

Test [5] relates to C. albicans. Kind of test: microbicidal activity MMC99%, C. albicans (Example 28). The conditions noted are these: C. albicans (Table 24). As for the experimental part: as §1, §4, §5
Another test deals with C. albicans (ATCC64549). In a few lines: (§6)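 Microbes at ~1–5×10^5 cells/mL in 1% BHI exposed to peptides (1, 10, 25, 100 µg/ml) at 37 °C. MMC99%: concentration killing 99% of inoculum after 2 h, by spotting onto blood agar. MIC: no absorbance rise at 650 nm above background after a further 20 h.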
The next test deals with E. coli O6. A digest of the protocol:
as §6

In test [6] the test system is C. albicans yeast cells (ATCC64549). Kind of test: killing and growth inhibition of C. albicans at pH 4.5 (Example 11). The conditions noted are these: pH 4.5, 1% BHI, 25 μg/ml of the peptide. Details: key to C. albicans inhibition (OD650): + = no increase in OD650 is seen; − = OD650 continues to increase. In a few lines: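 Yeast cells exposed 2 h at pH 4.5 to 25 µg/ml peptide in 1% BHI, then plated on blood agar. Killing scored as 100% and 99% fungicidal effect; growth inhibition read as no OD650 increase after a further 18 h.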

The next test relates to E. faecalis. The experiment in a line: killing of bacteria at fixed peptide concentration, E. faecalis (Example 12). The conditions noted are these: peptide 25 μg/ml. As for the experimental part: (§7) In this example, the peptides according to the invention were used to study the effect on the killing of different bacteria.
(§8) The peptides were used at a concentration of 25 μg/ml.

The test system of the next test is S. epidermis. The experiment in a line: killing of bacteria at fixed peptide concentration, S. epidermis (Example 12). The conditions noted are these: peptide 25 μg/ml. As for the experimental part:
as §7, §8

For test [7], the system named is S. aureus. The experiment in a line: killing of bacteria at fixed peptide concentration, S. aureus (Example 12). The conditions noted are these: peptide 25 μg/ml. The protocol: as §7, §8
The test system of a further test is K. pneumoniae. The experiment in a line: killing of bacteria at fixed peptide concentration, K. pneumoniae (Example 12). To be noted: peptide 25 μg/ml. The protocol:
as §7, §8

In the next test the test system is P. aeruginosa. The experiment in a line: killing of bacteria at fixed peptide concentration, P. aeruginosa (Example 12). To be noted: peptide 25 μg/ml. As for the experimental part:
as §7, §8

Test [8] deals with C. albicans. The experiment in a line: MMC99% of modified peptides, C. albicans (Example 26). To be noted: BHI diluted 1/100, pH approximately 6.7-6.9 (Table 22). As for the experimental part:
as §1
(§9) In this example the fungicidal, and bactericidal effects of the different peptides obtained in example 22 were studied. C. albicans, E. coli and S. aureus, respectively, were incubated in BHI medium diluted 1/100, with a pH of approximately 6.7-6.9. The concentration of each peptide needed to kill 99% of the microorganisms (MMC99%) was determined.

The subject of test [9] is E. coli. The experiment in a line: MMC99% of modified peptides, E. coli (Example 26). The conditions noted are these: BHI diluted 1/100, pH approximately 6.7-6.9 (Table 22). As for the experimental part: as §1, §9
Test [10] concerns S. aureus. Kind of test: MMC99% of modified peptides, S. aureus (Example 26). The conditions noted are these: BHI diluted 1/100, pH approximately 6.7-6.9 (Table 22). The protocol:
as §1, §9

Square brackets hold non-standard residues; d marks the D form. Ends that are not written are not given here. Orn = NCCC[C@H](N)C(=O)O

In the case of “C-F-Q-W-Orn-R-N-M-R-K-V-R (CFQW[Orn]RNMRKVR) [SEQ. ID. NO. 87]”, the MMC99% in the test on C. albicans [1] is listed as 3; in the test on E. coli [2], 6; in the test on S. aureus [3] it was “≦3.5”; in the test with C. albicans [4] it was 6.3; in the test with C. glabrata, over 50; in the test with C. neoformans, 3.1. The MMC99% with E. coli O6K5 and in the test on C. albicans [5] was 5 each time.
What is called MIC is the smallest concentration in the dilution series that meets the test's criterion for growth inhibition. For the substance “CFQWQRNMRKVR [Peptide 46, C-F-Q-W-Q-R-N-M-R-K-V-R]”, the minimum inhibitory concentration (MIC) with C. albicans (ATCC64549) (ATCC64549) and with E. coli O6 (O6) was 10 µg/mL each time. Also, the MMC99% is 10 µg/mL in the test on C. albicans (ATCC64549) (C. albicans, tested at 1, 10, 25 and 100 μg/ml of peptide); 10 µg/mL in the test on E. coli O6 (E. coli O6, tested at 1, 10, 25 and 100 μg/ml of peptide); 12 with C. albicans [1]; 12 in the test on E. coli [2]; 7 with S. aureus [3]; 12 in the test on C. albicans [8]. Moreover, the MMC99% was 6 in the test on E. coli [9]; 12 in the test with S. aureus [10]; 12.5 in the test with C. albicans [4]; 50 in the test on C. glabrata; 10 in the test on E. coli O6K5; 10 with C. albicans [5]. Also, the “C. albicans inhibition (OD650)” value in test [6] (OD650 after an additional 18 hours) is given as “+”. Further, in [6] (2 hours), the “C. albicans killing: 99%” value is reported as “+ (+ = 100/99% of the bacteria are killed)”. Further, in [6] (2 hours), the “C. albicans killing: 100%” value is recorded as “+ (+ = 100/99% of the bacteria are killed)”. Besides, in the test on E. faecalis, the “killing of bacteria: E. faecalis” value is given as “+ (+ = 99% of the bacteria are killed)”. In the test on S. epidermis, the “killing of bacteria: S. epidermis” value was “+ (+ = 99% of the bacteria are killed)”. The “killing of bacteria: S. aureus” value with S. aureus [7] is listed as “+ (+ = 99% of the bacteria are killed)”. The “killing of bacteria: K. pneumoniae” value in the test with K. pneumoniae is recorded as “+ (+ = 99% of the bacteria are killed)”. Also, the “killing of bacteria: P. aeruginosa” value in the test with P. aeruginosa is listed as “+ (+ = 99% of the bacteria are killed)”.
